From US8158810B2 (Gilead Sciences, Inc., priority 2006, dated 2012)

Molecular target: T1, hMAO-A (Homo sapiens, UniProt P21397)
T1 construct: purchased Sigma M7316
T1 sequence (P21397 1-527): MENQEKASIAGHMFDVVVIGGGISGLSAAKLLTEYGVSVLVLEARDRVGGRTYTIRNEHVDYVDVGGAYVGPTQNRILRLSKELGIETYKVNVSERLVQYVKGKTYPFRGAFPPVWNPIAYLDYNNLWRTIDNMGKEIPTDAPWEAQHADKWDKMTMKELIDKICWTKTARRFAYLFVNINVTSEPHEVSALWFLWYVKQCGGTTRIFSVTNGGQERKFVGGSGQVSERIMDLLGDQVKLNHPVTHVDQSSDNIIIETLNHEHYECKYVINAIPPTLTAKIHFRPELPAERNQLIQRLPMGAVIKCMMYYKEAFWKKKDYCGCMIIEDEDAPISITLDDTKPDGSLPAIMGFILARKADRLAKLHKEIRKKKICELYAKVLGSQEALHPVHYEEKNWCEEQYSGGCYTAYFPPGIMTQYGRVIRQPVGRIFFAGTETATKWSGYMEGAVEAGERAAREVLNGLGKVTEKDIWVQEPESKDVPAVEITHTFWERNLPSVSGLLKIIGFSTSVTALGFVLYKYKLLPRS
Assay: MAO-A inhibition assay
Assay type: biochemical
Settings: up to 10 μM; No = no inhibition; printed in the IC50 hMAO-A column
Description: MAO-A (Sigma M7316) and MAO-B (Sigma M7441) inhibition assays were conducted in 96-well micro-plates according to the method described by Zhou et al. [Analytical Biochemistry 253, 169-174, 1997]. […] Reactions were initiated by the addition of a pre-mixed solution of tyramine, horseradish peroxidase and Amplex Red, and were allowed to proceed at 37° C. for 30 min. Enzyme activities were determined by measuring absorbance at 570 nm (SpectralMax Plate reader), absorbance of oxidized Amplex Red generated by this horseradish peroxidase-coupled reaction. Nonspecifically formed products were determined in the presence of 2 and 10 µM clorgyline and deprenyl for MAO-A and MAO-B, respectively. IC50 values were determined by fitting concentration-inhibition data to sigmoidal dose-response curves with two-floating parameters: IC50 and Hill coefficient.

Structure (SMILES) | hMAO-A inhibition up to 10 μM
O=c1c(-c2ccc(O)cc2)coc2cc(OCc3nnc(-c4ccccc4Cl)s3)ccc12 [PT-64, 7-{[5-(2-chlorophenyl)(1,3,4-thiadiazol-2-yl)]methoxy}-3-(4-hydroxyphenyl)chromen-4-one] | No
CS(=O)(=O)c1ccc(-c2coc3cc(OCc4noc(-c5cc(F)cc(C(F)(F)F)c5)n4)ccc3c2=O)cc1 [PT-71, 7-({5-[3-fluoro-5-(trifluoromethyl)phenyl](1,2,4-oxadiazol-3-yl)}methoxy)-3-[4-(methylsulfonyl)phenyl]chromen-4-one] | No
O=c1c(-c2ccc(O)cc2)coc2cc(OC[C@H](O)CNCc3cccc(C(F)(F)F)c3)ccc12 [PT-53, 7-[(2R)-2-hydroxy-3-({[3-(trifluoromethyl)phenyl]methyl}amino)propoxy]-3-(4-hydroxyphenyl)chromen-4-one] | No
O=c1c(-c2ccc(O)cc2)coc2cc(OCc3ccncc3)ccc12 [PT-82, 3-(4-hydxoxyphenyl)-7-(4-pyridylmethoxy)chromen-4-one] | No
O=c1c(-c2ccc(O)cc2)coc2cc(OCc3cc(-c4cccc(C(F)(F)F)c4)on3)ccc12 [PT-45, 3-(4-hydroxyphenyl)-7-({5-[3-(trifluoromethyl)phenyl]isoxazol-3-yl}methoxy)chromen-4-one] | No
COC(=O)c1cnc(COc2ccc3c(=O)c(-c4ccc(O)cc4)coc3c2)o1 [PT-47, methyl 2-{[3-(4-hydroxyphenyl)-4-oxochromen-7-yloxy]methyl}-1,3-oxazole-5-carboxylate] | No
O=c1c(-c2ccc(O)cc2)coc2cc(OCc3nnc(-c4cccc(C(F)(F)F)c4)o3)ccc12 [PT-60, 3-(4-hydroxyphenyl)-7-({5-[3-(trifluoromethyl)phenyl](1,3,4-oxadiazol-2-yl)}methoxy)chromen-4-one] | No
COc1ccc(-c2coc3cc(OCc4sc(-c5ccc(C(F)(F)F)cc5)nc4C)ccc3c2=O)cn1 [PT-67, 3-(6-methoxy(3-pyridyl))-7-({4-methyl-2-[4-(trifluoromethyl)phenyl](1,3-thiazol-5-yl)}methoxy)chromen-4-one] | No
O=c1c(-c2ccc(O)cc2)coc2cc(OCNCc3cccc(C(F)(F)F)c3)ccc12 [PT-54, 3-(4-hydroxyphenyl)-7-[({[3-(trifluoromethyl)phenyl]methyl}amino)methoxy]chromen-4-one] | No
N#Cc1ccc(-c2coc3cc(OCc4cc(-c5cccc(C(F)(F)F)c5)no4)ccc3c2=O)cc1 [PT-69, 4-[4-oxo-7-({3-[3-(trifluoromethyl)phenyl]isoxazol-5-yl}methoxy)chromen-3-yl]benzenecarbonitrile] | No
O=c1c(-c2ccc(O)cc2)coc2cc(OCc3nnc(-c4ccc(F)cc4)o3)ccc12 [PT-81, 7-{[5-(4-fluorophenyl)(1,3,4-oxadiazol-2-yl)]methoxy}-3-(4-hydroxyphenyl)chromen-4-one] | No
O=c1c(-c2ccc(O)cc2)coc2cc(OCCCc3ccccc3)ccc12 [PT-57, 3-(4-hydroxyphenyl)-7-(3-phenylpropoxy)chromen-4-one] | No
Cc1nc(-c2ccc(C(F)(F)F)cc2)sc1COc1ccc2c(=O)c(-c3ccc(C#N)cc3)coc2c1 [PT-65, 4-[7-({4-methyl-2-[4-(trifluoromethyl)phenyl](1,3-thiazol-5-yl)}methoxy)-4-oxochromen-3-yl]benzenecarbonitrile] | No
O=C(O)c1cnc(COc2ccc3c(=O)c(-c4ccc(O)cc4)coc3c2)o1 [PT-49, 2-{[3-(4-hydroxyphenyl)-4-oxochromen-7-yloxy]methyl}-1,3-oxazole-5-carboxylic acid] | No
Cc1nc(-c2ccc(C(F)(F)F)cc2)sc1COc1ccc2c(=O)c(-c3ccc(NS(C)(=O)=O)cc3)coc2c1 [PT-66, 3-{4-[(methylsulfonyl)amino]phenyl}-7-({4-methyl-2-[4-(trifluoromethyl)phenyl](1,3-thiazol-5-yl)}methoxy)chromen-4-one] | No
O=c1c(-c2ccc(O)cc2)coc2cc(OCc3nnc(-c4cccc(F)c4)o3)ccc12 [PT-58, 7-{[5-(3-fluorophenyl)(1,3,4-oxadiazol-2-yl)]methoxy}-3-(4-hydroxyphenyl)chromen-4-one] | No
O=c1c(-c2ccc(O)cc2)coc2cc(OCc3cnc(-c4ccccc4)o3)ccc12 [PT-61, 3-(4-hydroxyphenyl)-7-[(2-phenyl(1,3-oxazol-5-yl))methoxy]chromen-4-one] | No
O=c1c(-c2ccc(O)cc2)coc2cc(OCc3nnc(-c4cc(F)cc(C(F)(F)F)c4)o3)ccc12 [PT-74, 7-({5-[3-fluoro-5-(trifluoromethyl)phenyl](1,3,4-oxadiazol-2-yl)}methoxy)-3-(4-hydroxyphenyl)chromen-4-one] | No
CC(=O)c1cccc(-c2coc3cc(OCc4noc(-c5cc(F)cc(C(F)(F)F)c5)n4)ccc3c2=O)c1 [PT-73, 3-(3-acetylphenyl)-7-({5-[3-fluoro-5-(trifluoromethyl)phenyl](1,2,4-oxadiazol-3-yl)}methoxy)chromen-4-one] | No
N#Cc1ccc(-c2coc3cc(OCc4nnc(-c5cc(F)cc(C(F)(F)F)c5)o4)ccc3c2=O)cc1 [PT-68, 4-[7-({5-[5-fluoro-3-(trifluoromethyl)phenyl](1,3,4-oxadiazol-2-yl)}methoxy)-4-oxochromen-3-yl]benzenecarbonitrile] | No
C[C@@H](NCC(=O)COc1ccc2c(=O)c(-c3ccc(O)cc3)coc2c1)c1ccc(F)cc1 [PT-56, 7-(3-{[(1R)-1-(4-fluorophenyl)ethyl]amino}-2-oxopropoxy)-3-(4-hydroxyphenyl)chromen-4-one] | 36%
O=c1c(-c2ccc(O)cc2)coc2cc(OC[C@H](O)CNCc3cc(F)cc(F)c3)ccc12 [PT-55, 7-((2R)-3-{[(3,5-difluorophenyl)methyl]amino}-2-hydroxypropoxy)-3-(4-hydroxyphenyl)chromen-4-one] | No

Next, values leading:

hMAO-A inhibition up to 10 μM | Structure (SMILES)
No | O=c1c(-c2ccc(O)cc2)coc2cc(OCCNCc3cccc(C(F)(F)F)c3)ccc12 [PT-99, 3-(4-hydroxyphenyl)-7-[2-({[3-(trifluoromethyl)phenyl]methyl}amino)ethoxy]chromen-4-one]
No | O=C(O)c1coc(COc2ccc3c(=O)c(-c4ccc(O)cc4)coc3c2)n1 [PT-102, 2-{[3-(4-hydroxyphenyl)-4-oxochromen-7-yloxy]methyl}-1,3-oxazole-4-carboxylic acid]
36% | C[C@H](NC(=O)COc1ccc2c(=O)c(-c3ccc(O)cc3)coc2c1)c1ccc(F)cc1 [PT-103, N-[(1S)-1-(4-fluorophenyl)ethyl]-2-[3-(4-hydroxyphenyl)-4-oxochromen-7-yloxy]acetamide]
No | O=c1c(-c2ccc(O)cc2)coc2cc(OCc3ccccn3)ccc12 [PT-91, 3-(4-hydroxyphenyl)-7-(2-pyridylmethoxy)chromen-4-one]
No | O=C(COc1ccc2c(=O)c(-c3ccc(O)cc3)coc2c1)Nc1ccccc1C(F)(F)F [PT-84, 2-[3-(4-hydroxyphenyl)-4-oxochromen-7-yloxy]-N-[2-(trifluoromethyl)phenyl]-acetamide]
34% | O=c1c(-c2ccc(O)cc2)coc2cc(OCCOc3ccc(Cl)cc3)ccc12 [PT-89, 7-[2-(4-chlorophenoxy)ethoxy]-3-(4-hydroxyphenyl)chromen-4-one]
No | O=c1c(-c2ccc(O)cc2)coc2cc(OCCc3ccccc3)ccc12 [PT-87, 3-(4-hydroxyphenyl)-7-(2-phenylethoxy)chromen-4-one]
26% | O=c1c(-c2ccc(O)cc2)coc2cc(OC[C@H](O)Cc3ccccc3)ccc12 [PT-109, 7-((2R)-2-hydroxy-3-phenylpropoxy)-3-(4-hydroxyphenyl)chromen-4-one]
No | CS(=O)(=O)Nc1ccc(-c2c(O)oc3cc(OCc4cccc(C(=O)O)c4)ccc3c2=O)cc1 [PT-111, 3-[(2-hydroxy-3-{4-[(methylsulfonyl)amino]phenyl}-4-oxochromen-7-yloxy)methyl]-benzoic acid]
No | COC(=O)c1coc(COc2ccc3c(=O)c(-c4ccc(O)cc4)coc3c2)n1 [PT-101, methyl 2-{[3-(4-hydroxyphenyl)-4-oxochromen-7-yloxy]methyl}-1,3-oxazole-4-carboxylate]

Same assay, conditions: up to 30 μM; No = no inhibition

hMAO-A inhibition up to 30 μM | Structure (SMILES)
No | COC(=O)c1cccc(COc2ccc3c(=O)c(-c4ccc(O)cc4)coc3c2)c1 [PT-33, methyl 3-{[3-(4-hydroxyphenyl)-4-oxochromen-7-yloxy]methyl}benzoate]
